Measured values reported in patent publication US6632826B1, “Carbocyclic HIV protease inhibitors” (priority 2001, dated 2003).
Read-outs that look alike come from different tables or passages of the source.

Assays:
HIV-1 protease = HIV-1 protease (Human immunodeficiency virus type 1 group M subtype B, UniProt P04585); assay: HIV protease inhibition assay (quenched fluorogenic substrate, fluorescence energy transfer); conditions: crude HIV-1 protease from E. coli, pH 4.7, 2 hours at 37° C.
Protocol: HIV Protease Inhibition Assay
HIV protease inhibitory activity was assessed using an adaptation of the method of Matayoshi. et al. [Matayoshi E. D. et al (1990).
Crude HIV-1 protease was prepared from E. coli pPTΔN. Cultures were grown at 30° C. in M9 medium supplemented with 0.2% casamino acids, 100 μg/ml ampicillin and 25 μg/ml thiamine until OD600=0.5-0.6, and the temperature was raised to 42° C. to induce expression of the protease. After 1.5 hours, the cells were harvested and the pellets stored at −70° C. until required.
The protease was prepared by lysis of the cells in a French pressure cell followed by precipitation of the enzyme with ammonium sulfate at 30% saturation.
The assay buffer comprised 0.1M sodium acetate pH 4.7, 8 mM EDTA, 0.2 M NaCl.
Tubes were incubated for 2 hours at 37° C. and the reaction was terminated by the addition of 500 μl of a 2:1 mixture of DMSO: 50 mM Tricine pH 8.5. Fluorescence was measured in a fluorescence spectrophotometer, excitation λ=340 nm, emission λ=492 nm.

HIV-HXB2 in MT4 cells = assay: Antiviral assay: protection of HIV-infected MT4 cells from cell death (MTT); assay type: cell-based; conditions: MT4 cells infected with HIV-HXB2, 5 days, concentration preserving cell viability by 50%
Protocol: Methods 20: 309-321]. The method is based on the ability of compounds to protect HIV-infected T lymphoblastoid cells (MT4 cells) from cell-death mediated by the infection. The endpoint of the assay was calculated as the concentration of compound at which the cell viability of the culture was preserved by 50% (‘50% inhibitory concentration’, IC50). The cell viability of a culture was determined by the uptake of soluble, yellow 3-[4,5-dimethylthiazol-2-yl]-2,5-diphenyltetrazolium bromide (MTT) and its reduction to a purple insoluble formazan salt. After solubilization, spectrophotometric methods were employed to measure the amount of formazan product. MT4 cells were prepared to be in logarithmic-phase growth and a total of 2×10^6 cells infected with either the wild type or site directed mutant clones of HIV-HXB2 at a multiplicity of approximately 0.0001 infectious units of virus per cell in a total volume of between 200-500 μl. The cells were incubated with virus for one hour at 37° C. then washed in 0.01 M phosphate buffered saline, pH 7.2, and resuspensed in culture medium for incubation in culture with serial dilutions of test compound. The culture medium used was RPMI 1640 without phenol red, supplemented with penicillin, streptomycin, L-glutamine and 10% fetal calf serum (GM 10).
Test compounds were prepared as 2 mM solutions in dimethyl sulphoxide (DMSO). Four replicate, serial 2-fold dilutions in GM10 were then prepared and 50 microlitre amounts placed in 96-well plates over a final concentration range of 625-1.22 nm. Fifty microlitres GM10 and 3.75×10^4 infected cells were then added to each well. Control cultures containing no cells (blank), uninfected cells (100% viability; 4 replicates) and infected cells without compound (total virus-mediated cell death; 4 replicates) were also prepared. The cultures were then incubated at 37° C. in a humidified atmosphere of 5% CO2 in air for 5 days.
A fresh solution of 5 mg/mL MTT was prepared in 0.01 M phosphate buffered saline, pH 7.2 and 20 μL added to each culture. The cultures were further incubated as before for 2 hours. They were then mixed by pipetting up and down, and 170 microlitres of Triton X-100 in acidified isopropanol (10% v/v Triton X-100 in 1:250 mixture of concentrated HCl in isopropanol) were added and the cultures were mixed again by pipetting up and down. When the formazan deposit was fully solubilised by further mixing, the absorbance (OD) of the cultures was measured at 540 nm and 690 nm wavelength (690 nm readings were used as blanks for artefacts between wells). The percent protection for each treated culture was then calculated from the equation: [formula]
The IC50 was then obtained from graph plots of percentage protection versus log10 drug concentration.

[1] = Human immunodeficiency virus 1, HXB2, MT4, 120 h

For `CC(C)(C)NC(=O)[C@@H]1CCCCC1C[C@@H](O)[C@H](Cc1ccccc1)NC(=O)[C@@H](CSc1cccc2ccccc12)NS(C)(=O)=O` (stereo in doubt) [Example 13, 2-{2-Hydroxy-3-[2-methanesulfonylamino-3-(naphthalen-1-ylsulfanyl)-propionylamino]-4-phenyl-butyl}-cyclohexanecarboxylic acid tert-butylamide], the IC50 (HIV-1 protease; Enzyme IC50 (nM)) was 0.44 nM.

`COC1CCC(C[C@@H](O)[C@H](Cc2ccccc2)NC(=O)[C@@H](CSc2ccc3ccccc3c2)NS(C)(=O)=O)C(C(=O)NC(C)(C)C)C1` (stereo partly drawn) [Example 1, 2-{2-hydroxy-3-[2-methanesulfonylamino-3-(naphthalen-2-ylsulfanyl)-propionylamino]-4-phenyl-butyl}-5-methoxy-cyclohexanecarboxylic acid tert-butylamide] was tested, and the IC50 (HIV-1 protease; Enzyme IC50 (nM)) was 0.31 nM and the IC50 (HIV-HXB2 in MT4 cells; [1]) was 29 nM.

`CC1CC(C[C@@H](O)[C@H](Cc2ccccc2)NC(=O)[C@@H](CSc2ccc3ccccc3c2)NS(C)(=O)=O)C(C(=O)NC(C)(C)C)C1` (stereo partly drawn) [Example 2, 2-{2-Hydroxy-3-[2-methanesulfonylamino-3-(naphthalen-2-ylsulfanyl)-propionylamino]-4-phenyl-butyl}-4-methyl-cyclopentanecarboxylic acid tert-butylamide] was tested, and the IC50 (HIV-1 protease; Enzyme IC50 (nM)) was 1.5 nM and the IC50 (HIV-HXB2 in MT4 cells; [1]) was 230 nM.

`CO[C@H]1CC[C@@H](C(=O)NC(C)(C)C)C(C[C@@H](O)[C@H](Cc2ccccc2)NC(=O)[C@@H](CSc2ccc3ccccc3c2)NS(C)(=O)=O)C1` (stereo partly drawn) [Example 7, N-tert-Butyl-[2-hydroxy-3-[[N2-(methanesulfonyl)-S-(2-naphthyl)-D-cysteinyl]amino]-4-phenylbutyl]-4-methoxy-1-cyclohexanecarboxamide] showed an IC50 (HIV-1 protease; Enzyme IC50 (nM)) of 0.42 nM and an IC50 (HIV-HXB2 in MT4 cells; [1]) of 35.8 nM.

Compound `COC1CCC(C[C@@H](O)[C@H](Cc2ccccc2)NC(=O)[C@@H](CSc2ccc3ccccc3c2)NS(C)(=O)=O)C(C(=O)NC(C)(C)C)C1` (stereo partly drawn) [Example 10, 2-{2-Hydroxy-3-[2-methanesulfonylamino-3-(naphthalen-2-ylsulfanyl)-propionylamino]-4-phenyl-butyl}-5-methoxy-cyclohexanecarboxylic acid tert-butylamide] has an IC50 (HIV-1 protease; Enzyme IC50 (nM)) of 0.3 nM and an IC50 (HIV-HXB2 in MT4 cells) of 28 nM.

In the case of `COC1CCC(C[C@@H](O)[C@H](Cc2ccccc2)NC(=O)[C@@H](C[S+]([O-])c2ccc3ccccc3c2)NS(C)(=O)=O)C(C(=O)NC(C)(C)C)C1` (stereo partly drawn) [Example 14, 2-{2-Hydroxy-3-[2-methanesulfonylamino-3-(naphthalene-2-sulfinyl)-propionylamino]-4-phenyl-butyl}-5-methoxy-cyclohexanecarboxylic Acid tert-Butylamide], the IC50 (HIV-1 protease; Enzyme IC50 (nM)) is reported as 0.2 nM and the IC50 (HIV-HXB2 in MT4 cells; [1]) is reported as 20.9 nM.

`CC1CC(C[C@@H](O)[C@H](Cc2ccccc2)NC(=O)[C@@H](C[S+]([O-])c2ccc3ccccc3c2)NS(C)(=O)=O)C(C(=O)NC(C)(C)C)C1` (stereo partly drawn) [Example 15, 2-{2-Hydroxy-3-[2-methanesulfonylamino-3-(naphthalene-2-sulfinyl)-propionylamino]-4-phenyl-butyl}-4-methyl-cyclopentanecarboxylic acid tert-butylamide] gave an IC50 (HIV-1 protease; Enzyme IC50 (nM)) of 1.5 nM and an IC50 (HIV-HXB2 in MT4 cells; [1]) of 27 nM.

`COC1CCC(C[C@@H](O)[C@H](Cc2ccccc2)NC(=O)[C@@H](C[S+]([O-])c2ccc3ccccc3c2)NS(C)(=O)=O)C(C(=O)NC(C)(C)C)C1` (stereo partly drawn) [Example 20, 2-{2-Hydroxy-3-[2-methanesulfonylamino-3-(naphthalene-2-sulfinyl)-propionylamino]-4-phenyl-butyl}-5-methoxy-cyclohexanecarboxylic acid tert-butylamide] was tested, and the IC50 (HIV-1 protease; read-out: Enzyme IC50) was 0.2 nM and the IC50 (HIV-HXB2 in MT4 cells) was 21 nM.

`CC(C)(C)NC(=O)C1CCCCC1C[C@@H](O)[C@H](Cc1ccccc1)NC(=O)[C@@H](C[S+]([O-])c1cccc2ccccc12)NS(C)(=O)=O` (stereo partly drawn) [Example 21, 2-{2-Hydroxy-3-[2-methanesulfonylamino-3-(naphthalene-1-sulfinyl)-propionylamino]-4-phenyl-butyl}-cyclohexanecarboxylic acid tert-butylamide] showed an IC50 (HIV-1 protease; Enzyme IC50 (nM)) of 0.31 nM.

For `CC1CC(C[C@@H](O)[C@H](Cc2ccccc2)NC(=O)[C@@H](CS(=O)(=O)c2ccc3ccccc3c2)NS(C)(=O)=O)C(C(=O)NC(C)(C)C)C1` (stereo partly drawn) [Example 23, 2-{2-Hydroxy-3-[2-methanesulfonylamino-3-(naphthalene-2-sulfonyl)-propionylamino]-4-phenyl-butyl}-4-methyl-cyclopentanecarboxylic acid tert-butylamide], the IC50 (HIV-1 protease; Enzyme IC50 (nM)) was 0.55 nM and the IC50 (HIV-HXB2 in MT4 cells; [1]) was 13 nM.

With `CO[C@H]1CC[C@@H](C(=O)NC(C)(C)C)C(C[C@@H](O)[C@H](Cc2ccccc2)NC(=O)[C@@H](CS(=O)(=O)c2ccc3ccccc3c2)NS(C)(=O)=O)C1` (stereo partly drawn) [Example 27, N-tert-Butyl-2-[2-hydroxy-3-[[N2-(methanesulfonyl)-S-(2-naphthyl)-D-cysteinyl]amino]-4-phenylbutyl]-4-methoxy-1-cyclohexanecarboxamide S,S-dioxide] the IC50 (HIV-1 protease; Enzyme IC50 (nM)) was 0.2 nM and the IC50 (HIV-HXB2 in MT4 cells; [1]) was 8.3 nM.

For `COC1CCC(C[C@@H](O)[C@H](Cc2ccccc2)NC(=O)[C@@H](CS(=O)(=O)c2cccc3ccccc23)NS(C)(=O)=O)C(C(=O)NC(C)(C)C)C1` (stereo partly drawn) [Example 29, 2-{2-Hydroxy-3-[2-methanesulfonylamino-3-(naphthalene-1-sulfonyl)-propionylamino]-4-phenyl-butyl}-5-methoxy-cyclohexanecarboxylic acid tert-butylamide], the IC50 (HIV-1 protease; Enzyme IC50 (nM)) was 0.41 nM and the IC50 (HIV-HXB2 in MT4 cells; [1]) was 73 nM.

`COC1CCC(C[C@@H](O)[C@H](Cc2ccccc2)NC(=O)[C@@H](CS(=O)(=O)c2ccc3ccccc3c2)NS(C)(=O)=O)C(C(=O)NC(C)(C)C)C1` (stereo partly drawn) [Example 30, 2-{2-Hydroxy-3-[2-methanesulfonylamino-3-(naphthalene-2-sulfonyl)-propionylamino]-4-phenyl-butyl}-5-methoxy-cyclohexanecarboxylic acid tert-butylamide] showed an IC50 (HIV-1 protease; Enzyme IC50 (nM)) of 0.6 nM and an IC50 (HIV-HXB2 in MT4 cells; [1]) of 173 nM.
